Measured values published in ChEMBL document CHEMBL1201862, “PubChem BioAssay data set” (2004).
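Following 48 hours of exposure in 96-well plates, responses at five concentrations were used to interpolate endpoints linearly. GI50 = concentration required for 50% inhibition of growth.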 Calls of active or inactive are those of the source. No stated cut-off is given here; in the data, active = GI50 up to about 1.1 µM and inactive = higher.

Experiments:
Assay in all cases: NCI-60 cell line screen, 48 h
EKVX = test system: EKVX
IGROV-1 = test system: IGROV-1
HCC 2998 = test system: HCC 2998
HL-60 = test system: HL-60
MOLT-4 = test system: MOLT-4
NCI-H226 = test system: NCI-H226
HOP-62 = test system: HOP-62
M14 = test system: M14
HCT-116 = test system: HCT-116
RPMI-8226 = test system: RPMI-8226
NCI-H522 = test system: NCI-H522
KM-20L2 = test system: KM-20L2
OVCAR-3 = test system: OVCAR-3
SK-MEL-5 = test system: SK-MEL-5
DLD-1 = test system: DLD-1
MDA-MB-231 = test system: MDA-MB-231
MCF7 = test system: MCF7
T47D = test system: T47D
BT-549 = test system: BT-549
PC-3 = test system: PC-3

Measured: GI50

COc1cccc(C2CC23C(=O)NC(=O)NC3=O)c1 (stereo not given)
inactive: EKVX > 100 µM | IGROV-1 > 100 µM | HCC 2998 > 100 µM | HL-60 > 100 µM | MOLT-4 > 100 µM | NCI-H226 > 100 µM | HOP-62 > 100 µM | M14 > 100 µM | HCT-116 > 100 µM | RPMI-8226 > 100 µM | NCI-H522 > 100 µM | KM-20L2 > 100 µM | OVCAR-3 > 100 µM | SK-MEL-5 > 100 µM

NNC(=S)N/N=C(/C(=O)Nc1ccc([N+](=O)[O-])cc1)c1nc2ccc([N+](=O)[O-])cc2nc1O
inactive: EKVX > 100 µM | IGROV-1 > 100 µM | HCC 2998 > 100 µM | HL-60 52.8 µM | MOLT-4 > 100 µM | NCI-H226 > 100 µM | M14 > 100 µM | HCT-116 > 100 µM | RPMI-8226 > 100 µM | NCI-H522 36.5 µM | DLD-1 > 100 µM | SK-MEL-5 45.5 µM

CC(=O)C1C(=O)C(=O)N(c2ccccc2C(C)C)C1=O (stereo not given)
inactive: EKVX > 100 µM | IGROV-1 > 100 µM | HCC 2998 > 100 µM | HL-60 > 100 µM | MOLT-4 > 100 µM | NCI-H226 > 100 µM | HOP-62 > 100 µM | M14 > 100 µM | HCT-116 > 100 µM | RPMI-8226 > 100 µM | NCI-H522 > 100 µM | KM-20L2 > 100 µM | OVCAR-3 > 100 µM | SK-MEL-5 > 100 µM

CC1C[C@]2(C[C@@H](C)C(=O)O2)O[C@@H]2CC3(C)[C@@H]4CCC5C(C)(C)OC(=O)C[C@H]6OO[C@]4(CC[C@]3(C)C12)CC56O (stereo not given in full)
inactive: IGROV-1 > 100 µM | HCC 2998 > 100 µM | HL-60 > 100 µM | NCI-H226 > 100 µM | M14 > 100 µM | RPMI-8226 > 100 µM | NCI-H522 > 100 µM | DLD-1 > 100 µM | OVCAR-3 > 100 µM | SK-MEL-5 > 100 µM

O=C(c1ccccc1)n1cc(/C=C/[N+](=O)[O-])c2ccccc21
inactive: EKVX > 100 µM | IGROV-1 22.6 µM | HL-60 3.24 µM | MOLT-4 17.2 µM | HOP-62 > 100 µM | M14 20.8 µM | HCT-116 17.9 µM | RPMI-8226 15.7 µM | NCI-H522 15.1 µM | DLD-1 18.4 µM | OVCAR-3 51.8 µM | SK-MEL-5 34.8 µM

CC(C1=CC=C2[C@@H]3CCC4CC(N(C)C)CC[C@]4(C)C3CC[C@]12C)N(C)C=O (stereo not given in full)
inactive: IGROV-1 > 100 µM | HCC 2998 > 100 µM | HL-60 > 100 µM | MOLT-4 > 100 µM | HOP-62 > 100 µM | M14 > 100 µM | HCT-116 > 100 µM | RPMI-8226 78.3 µM | NCI-H522 > 100 µM | DLD-1 > 100 µM | OVCAR-3 > 100 µM | SK-MEL-5 > 100 µM

CCOC(=O)/C(=C/c1cccc(Cl)c1)N(CC)CC
inactive: EKVX 55.7 µM | IGROV-1 49.4 µM | HCC 2998 79.1 µM | HL-60 49.2 µM | MOLT-4 87.7 µM | NCI-H226 37.8 µM | HOP-62 29.9 µM | M14 64.3 µM | HCT-116 37.4 µM | RPMI-8226 36.7 µM | NCI-H522 24.3 µM | DLD-1 48.9 µM | SK-MEL-5 41.1 µM

CC(C)c1ccccc1NC(=O)C(=O)Cc1nc2ccccc2s1
inactive: EKVX > 100 µM | IGROV-1 > 100 µM | HCC 2998 > 100 µM | HL-60 > 100 µM | MOLT-4 > 100 µM | NCI-H226 > 100 µM | HOP-62 > 100 µM | M14 > 100 µM | HCT-116 > 100 µM | NCI-H522 > 100 µM | KM-20L2 > 100 µM | OVCAR-3 > 100 µM | SK-MEL-5 > 100 µM

C=CCC1(O)c2ccccc2C(=O)c2c(O)ccc(O)c21 (stereo not given)
inactive: EKVX 11.4 µM | IGROV-1 5.98 µM | MDA-MB-231 6.15 µM | HCC 2998 3.94 µM | HL-60 3.06 µM | MOLT-4 1.93 µM | MCF7 4.11 µM | NCI-H226 7.03 µM | T47D 7.74 µM | HOP-62 12.4 µM | M14 5.01 µM | HCT-116 5.42 µM | RPMI-8226 > 23.8 µM | NCI-H522 2.62 µM | BT-549 6.03 µM | PC-3 8.2 µM | OVCAR-3 5.65 µM | SK-MEL-5 8.2 µM

CC(=O)N(C(C)=O)c1ncc(-n2nc(-c3ccccc3)cc2-c2ccccc2)c(-c2ccccc2)n1
inactive: EKVX > 10 µM | IGROV-1 > 10 µM | MDA-MB-231 > 10 µM | HCC 2998 > 10 µM | HL-60 7.83 µM | MOLT-4 5.22 µM | MCF7 5.07 µM | NCI-H226 > 10 µM | T47D > 10 µM | HOP-62 > 10 µM | M14 > 10 µM | HCT-116 4.82 µM | RPMI-8226 > 10 µM | NCI-H522 > 10 µM | BT-549 > 10 µM | PC-3 > 10 µM | OVCAR-3 > 10 µM | SK-MEL-5 4.12 µM

CC1=CCC[C@@H]2[C@@](C)(Cc3cc(O)ccc3O)[C@H](C)CC[C@@]12C
inactive: EKVX 6.5 µM | IGROV-1 4.76 µM | MDA-MB-231 11.9 µM | HCC 2998 7.66 µM | HL-60 1.81 µM | MOLT-4 3.48 µM | MCF7 4.97 µM | NCI-H226 16.2 µM | T47D 5.38 µM | HOP-62 9.62 µM | M14 4.94 µM | HCT-116 5.13 µM | RPMI-8226 3.44 µM | NCI-H522 4.83 µM | BT-549 5.47 µM | PC-3 4.33 µM | OVCAR-3 4.69 µM | SK-MEL-5 5.43 µM

CON(C)C(=O)CNC(=O)OCC1c2ccccc2-c2ccccc21
inactive: EKVX > 100 µM | IGROV-1 > 100 µM | MDA-MB-231 > 100 µM | HCC 2998 > 100 µM | HL-60 25.5 µM | MOLT-4 37.9 µM | MCF7 > 100 µM | NCI-H226 > 100 µM | T47D 68.4 µM | HOP-62 > 100 µM | M14 > 100 µM | HCT-116 18.6 µM | RPMI-8226 36.2 µM | NCI-H522 > 100 µM | BT-549 > 100 µM | PC-3 85.1 µM | OVCAR-3 > 100 µM | SK-MEL-5 84.5 µM

C=C1C(=O)C23CC1C[C@H](OC(C)=O)[C@H]2C1(C)C(OC(C)=O)C[C@H](O)C(C)(C)[C@H]1C(=O)[C@@H]3OC(C)=O (stereo not given in full)
inactive: EKVX 6.84 µM | IGROV-1 12.4 µM | MDA-MB-231 5.7 µM | HCC 2998 19.2 µM | HL-60 2.18 µM | MOLT-4 1.21 µM | MCF7 3.93 µM | NCI-H226 23.2 µM | T47D 2.72 µM | HOP-62 25.2 µM | M14 2.94 µM | HCT-116 2.22 µM | RPMI-8226 1.33 µM | NCI-H522 1.57 µM | BT-549 2.84 µM | PC-3 10.3 µM | OVCAR-3 5.71 µM | SK-MEL-5 13.9 µM
